Data from PubChem BioAssay (NCI).
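Following 48 hours of exposure in 96-well plates, responses at five concentrations were used to interpolate endpoints linearly. GI50 is the concentration that inhibits growth by half. TGI is the concentration that stops growth completely.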

What was measured:
Test in all cases: NCI tumour cell line growth inhibition, 48 h
[1] = system: NCI-H522 lung
[2] = system: A549 NSCLC
[3] = system: HCT-15 colon
[4] = system: HOP-92 NSCLC
[5] = system: CCRF-CEM leukemia
[6] = system: MCF7 breast
[7] = system: CAKI-1 renal
[8] = system: KM12 colon
[9] = system: HT29 colon
[10] = system: NCI-H23 lung
[11] = system: HCC-2998 colon
[12] = system: UO-31 renal
[13] = system: SF-539 CNS
[14] = system: PC-3 prostate
[15] = system: SN12C renal
[16] = system: SR leukemia
[17] = system: HOP-62 NSCLC
[18] = system: SW-620 colon
[19] = system: HL-60(TB) leukemia
[20] = system: NCI/ADR-RES ovarian
[21] = system: MDA-MB-435
[22] = system: TK-10 renal
[23] = system: OVCAR-4 ovarian
[24] = system: SF-268 CNS
[25] = system: A498 renal
[26] = system: MALME-3M melanoma
[27] = system: DU-145 prostate
[28] = system: SNB-75 CNS
[29] = system: HCT-116 colon
[30] = system: RPMI-8226 leukemia
[31] = system: SK-OV-3 ovarian
[32] = system: UACC-257 melanoma
[33] = system: SNB-19 CNS
[34] = system: COLO 205 colon
[35] = system: ACHN renal
[36] = system: RXF 393 renal
[37] = system: M14 melanoma
[38] = system: T-47D breast
[39] = system: MOLT-4 leukemia
[40] = system: NCI-H226 lung
[41] = system: OVCAR-8 ovarian
[42] = system: LOX IMVI melanoma
[43] = system: NCI-H460 lung
[44] = system: SF-295 CNS
[45] = system: 786-0 renal
[46] = system: SK-MEL-5 melanoma
[47] = system: K-562 leukemia
[48] = system: MDA-MB-231 breast
[49] = system: BT-549 breast
[50] = system: EKVX NSCLC
[51] = system: HS 578T breast
[52] = system: OVCAR-3 ovarian
[53] = system: U251 CNS
[54] = system: SK-MEL-2 melanoma
[55] = system: OVCAR-5 ovarian
[56] = system: SK-MEL-28 melanoma

CC[C@H](Nc1cc(C)nc(N)n1)c1nc2cccc(NCc3ccc(C(=O)NO)cc3)c2c(=O)n1-c1ccccc1
GI50 [1]: 1.06 µM
TGI [1]: 3.19 µM
GI50 [2]: 3.79 µM
TGI [2]: 16.4 µM
GI50 [3]: 10.4 µM
TGI [3]: 25.1 µM
GI50 [4]: 1.33 µM
TGI [4]: 3.54 µM
GI50 [5]: 1.62 µM
TGI [5]: 11.4 µM
GI50 [6]: 1.98 µM
TGI [6]: 6.39 µM
GI50 [7]: 3.33 µM
TGI [7]: 14.2 µM
GI50 [8]: 1.69 µM
TGI [8]: 3.31 µM
GI50 [9]: 2.69 µM
TGI [9]: 10.4 µM
GI50 [10]: 2.01 µM
TGI [10]: 4.72 µM
GI50 [11]: 1.82 µM
TGI [11]: 3.34 µM
GI50 [12]: 10.2 µM
TGI [12]: 24.2 µM
GI50 [13]: 1.67 µM
TGI [13]: 3.26 µM
GI50 [14]: 1.83 µM
TGI [14]: 4.41 µM
GI50 [15]: 1.96 µM
TGI [15]: 4.72 µM
GI50 [16]: 0.679 µM
TGI [16]: 13 µM
GI50 [17]: 2.05 µM
TGI [17]: 4.47 µM
GI50 [18]: 1.61 µM
TGI [18]: 4.19 µM
GI50 [19]: 2.59 µM
TGI [19]: 6.1 µM
GI50 [20]: 77.2 µM
TGI [20]: > 100 µM
GI50 [21]: 1.64 µM
TGI [21]: 3.12 µM
GI50 [22]: 4.28 µM
TGI [22]: 16.9 µM
GI50 [23]: 1.61 µM
TGI [23]: 4.12 µM
GI50 [24]: 1.82 µM
TGI [24]: 3.49 µM
GI50 [25]: 1.51 µM
TGI [25]: 3.33 µM
GI50 [26]: 1.39 µM
TGI [26]: 2.93 µM
GI50 [27]: 2.99 µM
TGI [27]: 10.6 µM
GI50 [28]: 1.12 µM
TGI [28]: 3.5 µM
GI50 [29]: 1.55 µM
TGI [29]: 3.72 µM
GI50 [30]: 2.08 µM
TGI [30]: 7.4 µM
GI50 [31]: 2.52 µM
TGI [31]: 8.88 µM
GI50 [32]: 2.17 µM
TGI [32]: 7.41 µM
GI50 [33]: 1.83 µM
TGI [33]: 4.77 µM
GI50 [34]: 1.56 µM
TGI [34]: 3.79 µM
GI50 [35]: 10.5 µM
TGI [35]: 22.7 µM
GI50 [36]: 1.48 µM
TGI [36]: 2.9 µM
GI50 [37]: 1.85 µM
TGI [37]: 3.88 µM
GI50 [38]: 1.54 µM
TGI [38]: 6.13 µM
GI50 [39]: 2.52 µM
TGI [39]: 10.2 µM
GI50 [40]: 2.86 µM
TGI [40]: 14.9 µM
GI50 [41]: 2.04 µM
TGI [41]: 6.13 µM
GI50 [42]: 1.78 µM
TGI [42]: 3.29 µM
GI50 [43]: 1.94 µM
TGI [43]: 5.68 µM
GI50 [44]: 1.66 µM
TGI [44]: 3.48 µM
GI50 [45]: 1.85 µM
TGI [45]: 3.79 µM
GI50 [46]: 1.96 µM
TGI [46]: 4.41 µM
GI50 [47]: 2.56 µM
TGI [47]: 10 µM
GI50 [48]: 1.62 µM
TGI [48]: 3.16 µM
GI50 [49]: 2.44 µM
TGI [49]: 6.57 µM
GI50 [50]: 3.32 µM
TGI [50]: 12.2 µM
GI50 [51]: 2.36 µM
TGI [51]: 9.97 µM
GI50 [52]: 1.86 µM
TGI [52]: 4.39 µM
GI50 [53]: 1.47 µM
TGI [53]: 3.03 µM
GI50 [54]: 2.58 µM
TGI [54]: 7.37 µM
GI50 [55]: 2.4 µM
TGI [55]: 7.59 µM
GI50 [56]: 1.83 µM
TGI [56]: 3.9 µM
